Assay results taken from patent US20030152953A1, “Polynucleotide encoding a novel human potassium channel alpha-subunit, K+alphaM2” (priority 2001, published 2003).
pIC50: −log10 of the molar value. Where two headings read alike, the source gives them in different places.

Experiments:
Kv2.2 = molecular target: T1, Kv2.2 (UniProt Q92953); conditions: cited from earlier work; for pIC50: read-out: IC50, inhibition of Kv2.2 current
T1 sequence (Q92953 1-911): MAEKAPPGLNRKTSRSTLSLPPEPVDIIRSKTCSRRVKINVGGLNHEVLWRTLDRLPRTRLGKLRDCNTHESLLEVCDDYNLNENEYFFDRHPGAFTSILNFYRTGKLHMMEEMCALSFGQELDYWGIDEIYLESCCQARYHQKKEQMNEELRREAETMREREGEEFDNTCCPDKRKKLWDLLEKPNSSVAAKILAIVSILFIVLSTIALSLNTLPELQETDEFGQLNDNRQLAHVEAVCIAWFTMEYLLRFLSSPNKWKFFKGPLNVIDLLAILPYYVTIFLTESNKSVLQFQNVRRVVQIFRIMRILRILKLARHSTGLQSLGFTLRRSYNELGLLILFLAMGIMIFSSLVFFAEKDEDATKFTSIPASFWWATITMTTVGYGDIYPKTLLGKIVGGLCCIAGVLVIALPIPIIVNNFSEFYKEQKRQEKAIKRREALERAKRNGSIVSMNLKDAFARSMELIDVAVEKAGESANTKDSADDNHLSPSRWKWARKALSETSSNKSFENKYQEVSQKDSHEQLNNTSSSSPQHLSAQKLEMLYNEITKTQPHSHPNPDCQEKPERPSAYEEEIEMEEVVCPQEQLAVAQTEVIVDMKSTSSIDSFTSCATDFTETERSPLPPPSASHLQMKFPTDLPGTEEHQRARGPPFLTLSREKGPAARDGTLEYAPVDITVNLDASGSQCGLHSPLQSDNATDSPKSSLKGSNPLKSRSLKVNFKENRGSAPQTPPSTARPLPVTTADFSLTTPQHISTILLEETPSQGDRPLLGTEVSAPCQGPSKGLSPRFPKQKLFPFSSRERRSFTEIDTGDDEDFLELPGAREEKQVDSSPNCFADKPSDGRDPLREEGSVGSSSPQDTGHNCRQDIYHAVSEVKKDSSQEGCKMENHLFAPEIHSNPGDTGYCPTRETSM

Kv2.1 = Kv2.1 alone; cited from earlier work
Kv2.1/Kv9.1 = conditions: cited from earlier work
[1] = test system: cortical or hippocampal neurons; conditions: in vitro; cited from earlier work
Human lung fibroblasts = test: Human lung fibroblast growth, Alamar Blue; format: cell-based; conditions: 3 days in basal medium
Experimental: Human lung fibroblasts are obtained from Clonetics (San Diego, Calif.) and maintained in growth media from Clonetics. Dermal microvascular endothelial cells are obtained from Cell Applications (San Diego, Calif.). For proliferation assays, the human lung fibroblasts and dermal microvascular endothelial cells can be cultured at 5,000 cells/well in a 96-well plate for one day in growth medium. The cells are then incubated for one day in 0.1% BSA basal medium. After replacing the medium with fresh 0.1% BSA medium, the cells are incubated with the test proteins for 3 days. Alamar Blue (Alamar Biosciences, Sacramento, Calif.) is added to each well to a final concentration of 10%. The cells are incubated for 4 hr. Cell viability is measured by reading in a CytoFluor fluorescence reader. For the PGE2 assays, the human lung fibroblasts are cultured at 5,000 cells/well in a 96-well plate for one day. […]

[2] = test system: nigral dopaminergic neurons; conditions: tissue culture paradigms; cited from earlier work
[3] = test system: nigral dopaminergic neurons; conditions: gel foam implants in the striatum; cited from earlier work
[4] = test system: slow component of the delayed rectifier current in native colonic myocytes; conditions: 1 microM; cited from earlier work
[5] = Xenopus oocytes injected with Kv2.2 mRNA

charybdotoxin
sensitivity of Kv2.2 current (Kv2.2; [5]): insensitive

CC[N+](CC)(CC)CC [tetraethylammonium]
sensitivity of currents to blocker (Kv2.1): sensitive | pIC50 (Kv2.2): 2.59 | effect on biphasic voltage-dependence of currents (Kv2.1/Kv9.1; 20 mM): eliminate the biphasic voltage-dependence | sensitivity of currents to blocker (Kv2.1/Kv9.1; Kv2.1/Kv9.1): sensitive

FGF-2: FGF-2 (basic FGF), fibroblast growth factor
neurite outgrowth [1]: increases | neuron survival [1]: increases | concentration showing stimulation of fibroblast growth (Human lung fibroblasts): 10 to 2500 ng/mL | activity towards nigral dopaminergic neurons [2]: trophic activity | protection of nigral dopaminergic neurons from MPTP toxicity [3]: near complete protection

C=C[C@H]1C[N@@]2CC[C@H]1C[C@H]2[C@H](O)c1ccnc2ccc(OC)cc12 [quinine]
block of delayed rectifier current [4]: preferentially block the slow component of the delayed rectifier current | pIC50 (Kv2.2; [5]): 4.86
